Data as given in patent US20230416205A1, “COMPOUNDS, COMPOSITIONS, AND METHODS” (Denali Therapeutics Inc, priority 2020, published 2023).

These compounds were tested on NLRP3 (assay: IL-1β secretion assay in PMA-differentiated, LPS/nigericin-stimulated THP-1 cells (384-well, ELISA read-out)). Details: Homo sapiens, THP-1, Table 4; IL-1β secretion, LPS/nigericin-stimulated THP-1 cells; read-out: IC50.
Format: cell-based, human
Outline: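 THP-1 cells differentiated with PMA (5 ng/mL, 40 h), primed in serum-free medium with 25 ng/mL LPS for 2 h, treated with compounds 1 h (0.5% DMSO), then stimulated with nigericin for 2 h at 37 °C. Supernatant IL-1β measured by ELISA; responses normalized to LPS+5 μM nigericin and LPS-only controls.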

Q: For `O=C(CN1CC2(CC2)c2cc(CC3CC3)ccc2C1=O)Nc1ncc(F)cn1` [Example 423, 2-[6-(cyclopropylmethyl)-1-oxospiro[3H-isoquinoline-4,1′-cyclopropane]-2-yl]-N-(5-fluoropyrimidin-2-yl)acetamide], which IC50 is on record?
A: The IC50 was 18400 nM.

Q: With `O=C(CN1CC2(CC2)c2cc(Br)ccc2C1=O)Nc1ncc(C2=COCC2)cn1` [Example 424, 2-(6-bromo-1-oxospiro[3H-isoquinoline-4,1′-cyclopropane]-2-yl)-N-[5-(2,3-dihydrofuran-4-yl)pyrimidin-2-yl]acetamide] as the compound, how does the IC50 read?
A: Its IC50 is 700 nM.

Q: For `O=C(CN1CC2(CC2)c2cc(Br)ccc2C1=O)Nc1ncn(CC(F)(F)F)n1` [Example 425, 2-(6-bromo-1-oxospiro[3H-isoquinoline-4,1′-cyclopropane]-2-yl)-N-[1-(2,2,2-trifluoroethyl)-1,2,4-triazol-3-yl]acetamide], which IC50 is on record?
A: The IC50 was 2850 nM.

Q: `O=C(CN1CC2(CC2)c2cc(Br)ccc2C1=O)NC1CC(c2ccccc2)C1` (stereo not drawn) [Example 427, 2-(6-bromo-1-oxospiro[3H-isoquinoline-4,1′-cyclopropane]-2-yl)-N-(3-trans-phenylcyclobutyl)acetamide] was tested. Which IC50 did it give?
A: The IC50 was 6280 nM.

Q: `O=C(CN1CC2(CC2)c2cc(Br)ccc2C1=O)Nc1nc2c(Cl)cccn2n1` [Example 429, 2-(6-bromo-1-oxospiro[3H-isoquinoline-4,1′-cyclopropane]-2-yl)-N-(8-chloro-[1,2,4]triazolo[1,5-a]pyridin-2-yl)acetamide] was tested. Which IC50 did it give?
A: The IC50 was 1660 nM.

Q: `O=C(CN1CC2(CC2)c2cc(Br)ccc2C1=O)Nc1ccc(=O)[nH]n1` [Example 430, 2-(6-bromo-1-oxospiro[3H-isoquinoline-4,1′-cyclopropane]-2-yl)-N-(6-oxo-1H-pyridazin-3-yl)acetamide] was tested. Which IC50 did it give?
A: The IC50 was 634 nM.
